“Also recorded” adds a separate entry of the source.

What all share (type): in vivo, mouse
The subject of experiment [1] is Cryba1 cKO mice. In words: histological sections (H&E) of retina after intravitreal injection. As to conditions: 1 year old, versus vehicle. As to the method: (§1) Cryba1^fl/fl and Cryba1 cKO mice (Male, 12 months old; n=4) were anaesthetized by intraperitoneal injection of 0.15 ml of ketamine (2.5 mg/ml)+ xylazine (0.5 mg/ml) mixture. Topical anesthesia (proparacaine hydrochloride) was applied to the eye and pupils dilated with a drop of topical 2.5% phenylephrine hydrochloride ophthalmic solution. The eye was proptosed by slight depression of the lower lid with blunt curved forceps and washed with sterile saline. […] All instruments were sterilized with a steam autoclave. Bacitracin Ophthalmic ointment was applied postoperatively^6. Animals were euthanized with CO2 gas four weeks after the first injection and the retinas were harvested.
For hematoxylin and eosin (H&E) staining, eyes from NOD-SCID mice (n=10) were enucleated and fixed initially in 2.5% glutaraldehyde for 72 h, followed by 10% buffered formalin. The eyes were embedded in methyl-methacrylate, sectioned and stained as previously described″.

Experiment [2] relates to AKT2 (p-AKT2 S474). The experiment in a line: immunoblot of AKT2 phosphorylation in retinas after intravitreal injection. The settings on record: 1-year-old Cryba1 cKO mice. On the procedure: SDS-PAGE and western blot analyses were performed as previously described^12. The primary antibodies were used at a dilution of 1:1000 whereas, all secondary antibodies were used at a dilution of 1:3000.
as §1
On the technique in general: A western blot detects proteins with antibodies after separation by electrophoresis.

Experiment [3] concerns Cryba1 cKO mice. The experiment in a line: ELISA of CXCL1 and IFNλ in RPE-choroid after intravitreal injection. The settings on record: versus age-matched vehicle and untreated. As to the method:
The RPE choroid complexes harvested from freshly enucleated mouse eyes were kept on ice and then homogenized in 300 μL of complete extraction buffer (Abcam, USA) per 5 mg of tissue. The homogenized tissue was allowed to stay in constant agitation for 2 h at 4° C., centrifuged at 13,000 rpm at 4° C. for 20 min. The supernatants were aliquoted and stored at −80° C. and were subsequently used to perform ELISA to evaluate the levels of IFNλ, and CXCL1, as previously described^13.
as §1
(ELISA stands for enzyme-linked immunosorbent assay.)

For experiment [4], the system named is Cryba1 cKO mice. In words: flow cytometry estimation of percentage neutrophils in retina after intravitreal injection. As to conditions: male, 12 months old, intravitreal 500 uM, once weekly for three weeks, versus vehicle or untreated. On the procedure: Mouse retinas were dissected from enucleated eyes and digested with 0.05% collagenase D at 37° C. for 30 min, teased with blunt end forceps and pipetted to release cells, passed through a 70 μm cell strainer, centrifuged at 1,300 g, 4° C. for 20 minutes^10. The entire pellet was used for staining with the FITC-tagged cell surface markers CD45, V450-tagged Ly6G and Alexa fluor 700-tagged CD11b (BD Pharmigen™, USA) at a concentration of 1 μg/ml in PBS containing 1% BSA for 1 h. Cells were washed and analyzed on a flow cytometer (BD Aria III, FACS DIVA software, BD Biosciences, USA and FlowJo software-version 7.6.5), SSC-A/CD45+(FITC) cells were manually gated and among this population of cells; % Ly6G+ and % CD11b+Ly6G+ cells were quantified.
Cryba1^fl/fl and Cryba1 cKO mice (Male, 12 months old; n=4) were anaesthetized by intraperitoneal injection of 0.15 ml of ketamine (2.5 mg/ml)+ xylazine (0.5 mg/ml) mixture. Topical anesthesia (proparacaine hydrochloride) was applied to the eye and pupils dilated with a drop of topical 2.5% phenylephrine hydrochloride ophthalmic solution. The eye was proptosed by slight depression of the lower lid with blunt curved forceps and washed with sterile saline. […] All instruments were sterilized with a steam autoclave. Bacitracin Ophthalmic ointment was applied postoperatively^6. […]

As for `NC1(Cc2ccc(Cl)cc2)CCN(c2ncnc3[nH]ccc23)CC1` [CCT128930], the “retinal structure / early RPE abnormalities (H&E)” value in experiment [1] is reported as “exhibited normal structure; also recorded: reverses these early RPE abnormalities”. Besides, in experiment [2] (immunoblot), the “levels of total AKT in retina” value is reported as “levels of total AKT did not change”. For the same molecule, the “levels of pAKT2 (p-AKT2 S474) in retina” value in experiment [2] (immunoblot densitometry, versus vehicle) is given as “significantly decreased the levels of pAKT2; also recorded: reduced”. Further, in experiment [3], the “CXCL1 levels in RPE-choroid” value is reported as “reduced levels” and the “IFNλ levels in RPE-choroid” value is reported as “reduced levels”. Moreover, the “infiltrating neutrophils (% Ly6G+ and % CD11b+Ly6G+ cells) in retina” value in experiment [4] is on record as “decrease in infiltrating neutrophils; also recorded: significantly fewer neutrophils in the retinas”.

Values taken from patent publication US20210322422A1, “USE OF AKT INHIBITORS IN OPHTHALMOLOGY” (Hoffmann-La Roche Inc., priority 2018, published 2021).
